From patent publication EP3516395B1, “METHOD FOR DETERMINING AFFINITY BETWEEN LIGANDS AND A TARGET” (Plant Advanced Technologies Pat, priority 2016, dated 2018)
Read-outs that look alike come from different tables or passages of the source.

Tests used:
[1] = system: collagénase issue de Clostridium histolyticum; assay: Relative affinity by competitive binding, ultrafiltration and LC-MS (Examples 2, 3, 6); conditions: for Affinités relatives: reference 3,5-DCQ
Method: Une solution de travail de collagénase issue de Clostridium histolyticum à 6.25 mg/mL est préparée en dissolvant de la poudre de l'enzyme lyophilisée dans 50 mM d'acétate d'ammonium, avec un pH de 7.5, ajusté par une solution aqueuse d'ammoniac. L'échantillon est préparé en utilisant l'un des solvants suivants : des glycols, le DMSO (diméthylsulfoxide), l'éthanol, pur ou en solution dans l'eau. La concentration dans l'échantillon des ligands initiaux est équimolaire et doit être dans la gamme de 0,75 à 1 mM. Les ligands choisis étaient des isomères d'acide 3,5-dicaféoylquinique (noté 3,5-DCQ par la suite) et des isomères d'esters d'acide 3,5-dicaféoylquinique et de dipropylène glycol (noté 3,5-DCQ-DPG par la suite). Un échantillon de référence est préparé également en diluant l'échantillon de 10 à 20 fois dans une solution d'eau et d'un quart de volume d'acétonitrile.
• 1. Étape de préconditionnement - Des puits à membrane filtrante sont pré-conditionnées avec un volume de 500 µl d'acétate d'ammonium 50mM pH 7,5 qui est passé à travers la membrane avec une centrifugation de 14000 g pendant 60 secondes. • 2. Étape de liaison - Un volume de 75 µl de la solution de collagénase à une concentration de 6,25mg/ml dans 50 mM d'acétate d'ammonium, avec un pH de 7.5 est mélangé avec 10 µl de l'échantillon pendant 10 min dans un tube d'Eppendorf en plastique. Dans ce mélange, on a 55,79 µM de collagénase et une gamme de 93,75 µM à 125 µM de ligands (3,5-DCQ et 3,5-DCQ-DPG) soit un ratio ligands/cible entre […]. • 3. Étape de lavage - Le mélange de l'enzyme et de l'échantillon est déposé dans un puits préconditionné à l'étape de préconditionnement, puis centrifugé à 14000 g jusqu'à l'élimination de l'essentiel du solvant. Les complexes enzyme-ligands restent à la surface de la membrane du filtre puis sont à nouveau suspendu dans un volume de 100 µL de la même solution à 50 mM d'acétate d'ammonium, avec un pH de 7.5 et centrifugé à 14000 g jusqu'à élimination du solvant. Cette procédure est répétée trois fois et élimine tous les composés qui ne sont pas liés à l'enzyme. • 4. Étape de séparation - Les complexes enzyme-ligands retenus dans le filtre sont à nouveau suspendus dans un volume de 10 µL d'eau ultra-pure, puis sont mélangés avec un volume de 40 µL d'acétonitrile pour dénaturer et précipiter l'enzyme et, en même temps libérer les ligands. Le mélange est centrifugé à 21000 g pendant 10 min pour séparer le précipité du surnageant. • 5. Étape d'analyse - Ledit surnageant formant la solution traitée est analysé par chromatographie en phase liquide couplée à une spectrométrie de masse. L'échantillon de référence est analysé également de la même manière, en utilisant les mêmes conditions d'analyse. Les affinités relatives sont calculées selon la méthode décrite ci-après. Le résultat est sur la première ligne du tableau 3.
Plusieurs échantillons sont préparés comme dans l'exemple 2, mais avec une proportion entre les ligands 3,5-DCQ et 3,5-DCQ-DPG non plus équimolaire mais déséquilibrée, comme indiqué dans le tableau 3 ci-après.
L'analyse est conduite de la même manière que dans l'exemple 2. Les résultats sont de la deuxième à la quatrième ligne du tableau 3.
La préparation des échantillons (ligands et cible) et leur analyse ont été réalisés selon l'exemple 2. Les effets des variations du rapport de ligands/cible ont été évalués.
Une analyse par chromatographie en phase liquide fournit un chromatogramme tel que montré par les figures 1 et 2. Le chromatogramme représente une intensité de signal en fonction du temps de rétention dans une colonne. Le signal présente différents pics d'intensité variable. Chaque pic est associé à l'un des ligands présent dans l'échantillon et la solution traitée. • 1. Normalisation de l'intensité du signal analytique pour les ligands dans l'échantillon de référence. […]

[2] = system: collagénase issue de Clostridium histolyticum; assay: Collagenase inhibition with synthetic substrate FALGPA (Example 4); type: biochemical; conditions: for activité de la collagénase: ligand 5µM, FALGPA 1 mM, tris-HCl buffer alone = 100%
Method: L'activité inhibitrice de la collagénase issue de Clostridium histolyticum a été expérimentée en mettant en présence de la collagénase et du substrat synthétique FALGPA (N-(3-[2-Furyl]acryloyl)-Leu-Gly-Pro-Ala) préparé à une concentration de 1 mM, du tampon tris-HCI seul pour établir une référence, et en présence respectivement de tampon tris-HCI additionné de 3,5-DCQ et 3,5-DCQ-DPG en concentration à 5µM. La référence montrant une activité de la collagénase de 100%, on a mesuré une activité de la collagénase de 94% en présence de 3,5-DCQ et une activité de 50% en présence de 3,5-DCQ-DPG. A cette concentration, la collagénase de Clostridium histolyticum est inhibée de manière significative par le 3,5-DCQ-DPG, tandis qu'elle ne l'est que très peu par le 3,5-DCQ.

[3] = biological target: collagénase issue de Clostridium histolyticum; conditions: J. Nat. Prod. 2005, 68, 794-796; cited from earlier work
tyrosinase de champignon = assay: Relative affinity by competitive binding, ultrafiltration and UPLC-MS/UV (Example 1); conditions: equimolar ligands; for Facteur de normalisation, solution traitée: NFTB, peak area UV 270 nm relative to reference ligand moracénine B; for Affinités relatives: RA = NFTB/NFeq, reference ligand moracénine B
Method: Une solution de travail de tyrosinase de champignon à 1.25 mg/mL est préparée en dissolvant de la poudre de l'enzyme lyophilisée dans 50 mM d'acétate d'ammonium, avec un pH de 7.0. L'échantillon est préparé en utilisant l'un des solvants suivants : des glycols, DMSO (diméthylsulfoxide), l'éthanol, pur ou en solution dans l'eau. La concentration dans l'échantillon des ligands initiaux est équimolaire et doit être dans la gamme de 0,75 à 1 mM. Les ligands choisis étaient des inhibiteurs connus de la tyrosinase isolés depuis des racines de murier noir (Morus nigra) : la moracénine A, moracénine B et la kuwanone C. Un échantillon de référence est préparé également en diluant l'échantillon de 10 à 20 fois dans une solution d'eau et d'un quart de volume d'acétonitrile.
• 1. Étape de préconditionnement - Des puits à membrane filtrante sont pré-conditionnées avec un volume de 500 µl d'une solution à 85% d'acétate d'ammonium et 15% d'éthanol qui est passé à travers la membrane avec une centrifugation de 14000 g pendant 60 secondes. • 2. Étape de liaison - La préparation de tyrosinase (1.25 mg/mL, 75 µL) est mélangée avec 5 µl de l'échantillon dans un tube d'Eppendorf en plastique, puis est incubée pendant 5 min. Dans ce mélange, on a 9,16 µM de tyrosinase et une gamme de 46,88 µM à 62,5 µM de ligands (moracénine A, moracénine B et kuwanone C) soit un ratio ligands/cible allant de 5,12 à 6,83. • 3. Étape de lavage - le mélange de l'enzyme et de l'échantillon est déposé dans un puits préconditionné à l'étape de préconditionnement, puis centrifugé à 14000 g jusqu'à l'élimination de l'essentiel du solvant. Les complexes enzyme-ligands restent à la surface de la membrane du filtre puis sont à nouveau suspendu dans un volume de 100 µL de la même solution à 85% d'acétate d'ammonium et 15% d'éthanol et centrifugé à 14000 g jusqu'à élimination du solvant. Cette procédure est répétée trois fois et élimine tous les composés qui ne sont pas liés à l'enzyme. • 4. Étape de séparation - Les complexes enzyme-ligands retenus dans le filtre sont à nouveau suspendus dans un volume de 10 µL d'eau ultra-pure, puis sont mélangés avec un volume de 40 µL d'acétonitrile pour dénaturer et précipiter l'enzyme et, en même temps libérer les ligands. Le mélange est centrifugé à 21000 g pendant 10 min pour séparer le précipité du surnageant. • 5. Étape d'analyse - Ledit surnageant formant la solution traitée est analysé par chromatographie en phase liquide couplée à une spectrométrie de masse, connue également par l'acronyme UPLC-MS. L'échantillon de référence est analysé également de la même manière, en utilisant les mêmes conditions d'analyse. Les affinités relatives sont calculées selon la méthode décrite ci-après. De préférence, l'échantillon de référence et la solution traitée sont analysés séquentiellement pour éliminer des dispersions dues aux réglages de l'appareillage.
Une analyse par chromatographie en phase liquide fournit un chromatogramme tel que montré par les figures 1 et 2. Le chromatogramme représente une intensité de signal en fonction du temps de rétention dans une colonne. Le signal présente différents pics d'intensité variable. Chaque pic est associé à l'un des ligands présent dans l'échantillon et la solution traitée. • 1. Normalisation de l'intensité du signal analytique pour les ligands dans l'échantillon de référence. Pour chaque chaque ligand CEi dans l'échantillon de référence, on établit des facteurs de normalisation NFeq dudit ligand CEi par comparaison au ligand de référence REF, selon l'équation suivante : NFeq,CEi = (ISeq,CEi)/(ISeq,REF) [formula] où : • NF est un facteur de normalisation; • ISeq,CEi est l'intensité du signal analytique pour le ligand CEi dans l'échantillon; • ISeq,REF est l'intensité du signal analytique pour le ligand de référence REF dans l'échantillon. L'intensité peut être choisie parmi l'aire du pic ou la valeur maximale du pic. Le facteur de normalisation du ligand de référence vaut toujours 1. • 2. […]

[4] = ex. 2, molar ratio 3,5-DCQ-DPG/3,5-DCQ 1/1 (équimolaire)
[5] = ex. 3.1, molar ratio 3,5-DCQ-DPG/3,5-DCQ 0,5/1
[6] = ex. 3.2, molar ratio 3,5-DCQ-DPG/3,5-DCQ 0,2/1
[7] = ex. 3.3, molar ratio 3,5-DCQ-DPG/3,5-DCQ 3/1

For `O=C(/C=C/c1ccc(O)c(O)c1)OC1CC(O)(C(=O)O)CC(OC(=O)/C=C/c2ccc(O)c(O)c2)C1O` (stereo not drawn) [3,5-DCQ, acide 3,5-dicaféoylquinique], which “Facteur de normalisation, solution traitée” value (from here on “Facteur de normalisation”) [1, 4] is on record?
The value was 1,00.

What about the Affinités relatives [1, 4] of the same compound?
The Affinités relatives was 1,00.

What about the “Facteur de normalisation” value [1, 5] of the same compound?
Its value is 1,00.

And the Affinités relatives [1, 5]?
Its Affinités relatives is 1,00.

And the “Facteur de normalisation” value [1, 6]?
The value was 1,00.

And the Affinités relatives [1, 6]?
The Affinités relatives was 1,00.

What about the “Facteur de normalisation” value [1, 7] of the same compound?
Its value is 1,00.

And the Affinités relatives [1, 7]?
Its Affinités relatives is 1,00.

And the “activité de la collagénase” value [2]?
The value was 94%.

What about the IC50 [3] of the same compound?
Its IC50 is 23.6 µM.

Which “Facteur de normalisation” value (tyrosinase de champignon) does the source give for `CC(C)=CCc1c(-c2ccc(O)cc2O)oc2c(CC=C(C)C)c(O)cc(O)c2c1=O` [kuwanone C] here?
Its value is 0,78.

What about the Affinités relatives (tyrosinase de champignon) of the same compound?
The Affinités relatives was 1,07.

Which results are given for “esters d'acide 3,5-dicaféoylquinique et de dipropylène glycol [3,5-DCQ-DPG]”?
Facteur de normalisation, solution traitée [1, 4]: 6,03; Affinités relatives [1, 4]: 5,21; Facteur de normalisation, solution traitée [1, 5]: 2,49; Affinités relatives [1, 5]: 4,05; Facteur de normalisation, solution traitée [1, 6]: 0,81; Affinités relatives [1, 6]: 3,01; Facteur de normalisation, solution traitée [1, 7]: 13,64; Affinités relatives [1, 7]: 4,09; (RADCQ−DPG^Mx)/(RADCQ−DPG^Mref) ([1]; sample M_1: collagénase 32,1 µM, DCQ/DCQ-DPG 75/75 µM, ligands/collagénase 2,33, competition): 0,96; (RADCQ−DPG^Mx)/(RADCQ−DPG^Mref) ([1]; sample M_2: collagénase 32,1 µM, DCQ/DCQ-DPG 50/50 µM, ligands/collagénase 1,56, competition): 0,71; (RADCQ−DPG^Mx)/(RADCQ−DPG^Mref) ([1]; sample M_3: collagénase 32,1 µM, DCQ/DCQ-DPG 15/15 µM, ligands/collagénase 0,47, no competition): 0,47; IC50 ([2]; approximate, from Example 4 (50% activity at 5µM)): ~5 µM; activité de la collagénase [2]: 50%

Which results are given for moracénine B?
Facteur de normalisation, solution traitée (tyrosinase de champignon): 1,00; Affinités relatives (tyrosinase de champignon): 1,00
